Assay: mn = molality of the nth substance listed, in mol/kg
Conditions: for surface tension liquid-gas: Ring tensiometer; for viscosity / speed of sound: 101.3 kPa, Liquid; for viscosity: Capillary tube (Ostwald / Ubbelohde) method

O=[N+]([O-])[O-].O=[N+]([O-])[O-].[Zn+2] [nitric acid, zinc salt] + O
Conditions | speed of sound [m/s] | surface tension liquid-gas [mN/m] | viscosity [mPa·s]
273.15 K, m1 = 0.0875 | 1413 | – | –
273.15 K, m1 = 0.1329 | 1413.5 | – | 1.863
273.15 K, m1 = 0.2263 | – | 75.65 | –
273.15 K, m1 = 0.2466 | 1422.7 | – | 1.905
273.15 K, m1 = 0.334 | – | 75.79 | –
273.15 K, m1 = 0.3388 | 1429.7 | – | 1.95
273.15 K, m1 = 0.6111 | 1454.8 | – | 2.081
273.15 K, m1 = 0.6198 | – | 76.35 | –
273.15 K, m1 = 0.6405 | 1457 | – | 2.103
273.15 K, m1 = 0.8228 | – | 77.03 | –
273.15 K, m1 = 1.113 | 1500.1 | – | 2.431
273.15 K, m1 = 1.258 | 1516.9 | – | 2.573
273.15 K, m1 = 1.259 | – | 78.02 | –
273.15 K, m1 = 1.549 | – | 78.63 | –
273.15 K, m1 = 1.551 | 1544.4 | – | 2.833
273.15 K, m1 = 1.818 | – | 78.99 | –
273.15 K, m1 = 1.906 | 1578.6 | – | 3.306
273.15 K, m1 = 2.145 | 1600.1 | – | 3.662
273.15 K, m1 = 2.222 | – | 80.42 | –
273.15 K, m1 = 2.29 | 1612.6 | – | 3.902
273.15 K, m1 = 2.292 | 1612.3 | – | –
273.15 K, m1 = 2.344 | 1617.4 | – | 3.935
273.15 K, m1 = 2.526 | – | 81.29 | –
273.15 K, m1 = 2.721 | – | 81.96 | –
273.15 K, m1 = 2.91 | 1663.1 | – | 5.033
273.15 K, m1 = 3.426 | – | 83.68 | –
273.15 K, m1 = 3.472 | 1707.7 | – | 6.559
273.15 K, m1 = 4.011 | – | 85.35 | –
273.15 K, m1 = 4.075 | 1740.8 | – | 8.684
273.15 K, m1 = 4.231 | – | 85.77 | –
273.15 K, m1 = 4.817 | 1780.2 | – | 12.49
273.15 K, m1 = 5.133 | – | 87.84 | –
273.15 K, m1 = 5.224 | 1794 | – | 15.05
278.15 K, m1 = 0.0875 | 1435.8 | – | –
278.15 K, m1 = 0.1329 | 1436.3 | – | 1.585
278.15 K, m1 = 0.2466 | 1444.2 | – | 1.626
278.15 K, m1 = 0.3388 | 1450.4 | – | 1.667
278.15 K, m1 = 0.6111 | 1472.6 | – | 1.788
278.15 K, m1 = 0.6405 | 1474.8 | – | 1.807
278.15 K, m1 = 1.113 | 1514.5 | – | 2.096
278.15 K, m1 = 1.258 | 1530.4 | – | 2.221
278.15 K, m1 = 1.551 | 1555 | – | 2.436
278.15 K, m1 = 1.906 | 1586.2 | – | 2.838
278.15 K, m1 = 2.145 | 1606.1 | – | 3.15
278.15 K, m1 = 2.29 | 1618.1 | – | 3.351
278.15 K, m1 = 2.292 | 1617.3 | – | –
278.15 K, m1 = 2.344 | 1622.2 | – | 3.38
278.15 K, m1 = 2.91 | 1664.7 | – | 4.293
278.15 K, m1 = 3.472 | 1703.6 | – | 5.554
278.15 K, m1 = 4.075 | 1737.6 | – | 7.273
278.15 K, m1 = 4.817 | 1772.3 | – | 10.32
278.15 K, m1 = 5.224 | 1786.4 | – | 12.33
283.15 K, m1 = 0.0875 | 1456.4 | – | –
283.15 K, m1 = 0.1329 | 1455.8 | – | 1.368
283.15 K, m1 = 0.2263 | – | 74.42 | –
283.15 K, m1 = 0.2466 | 1463.2 | – | 1.406
283.15 K, m1 = 0.334 | – | 74.63 | –
283.15 K, m1 = 0.3388 | 1468.8 | – | 1.444
283.15 K, m1 = 0.6111 | 1487.8 | – | 1.559
283.15 K, m1 = 0.6198 | – | 75.26 | –
283.15 K, m1 = 0.6405 | 1491.2 | – | 1.571
283.15 K, m1 = 0.8228 | – | 75.94 | –
283.15 K, m1 = 1.113 | 1526.3 | – | 1.827
283.15 K, m1 = 1.258 | 1540.8 | – | 1.936
283.15 K, m1 = 1.259 | – | 77.01 | –
283.15 K, m1 = 1.549 | – | 77.42 | –
283.15 K, m1 = 1.551 | 1564 | – | 2.13
283.15 K, m1 = 1.818 | – | 78.05 | –
283.15 K, m1 = 1.906 | 1592.7 | – | 2.478
283.15 K, m1 = 2.145 | 1611.1 | – | 2.737
283.15 K, m1 = 2.222 | – | 79.29 | –
283.15 K, m1 = 2.29 | 1618.7 | – | 2.901
283.15 K, m1 = 2.292 | 1619.7 | – | –
283.15 K, m1 = 2.344 | 1626.1 | – | 2.932
283.15 K, m1 = 2.526 | – | 80.48 | –
283.15 K, m1 = 2.721 | – | 80.75 | –
283.15 K, m1 = 2.91 | 1665.6 | – | 3.705
283.15 K, m1 = 3.426 | – | 82.59 | –
283.15 K, m1 = 3.472 | 1701.3 | – | 4.774
283.15 K, m1 = 4.011 | – | 84.21 | –
283.15 K, m1 = 4.075 | 1733.5 | – | 6.175
283.15 K, m1 = 4.231 | – | 84.55 | –
283.15 K, m1 = 4.817 | 1765.9 | – | 8.641
283.15 K, m1 = 5.133 | – | 86.75 | –
283.15 K, m1 = 5.224 | 1779.8 | – | 10.24
283.15 K, m1 = 5.797 | 1795 | – | –
283.15 K, m1 = 6.245 | – | 88.17 | –
288.15 K, m1 = 0.0875 | 1473.6 | – | –
288.15 K, m1 = 0.1329 | 1473.1 | – | 1.195
288.15 K, m1 = 0.2466 | 1479.5 | – | 1.229
288.15 K, m1 = 0.3388 | 1484.8 | – | 1.265
288.15 K, m1 = 0.6111 | 1503 | – | 1.368
288.15 K, m1 = 0.6405 | 1505.2 | – | 1.38
288.15 K, m1 = 1.113 | 1537.3 | – | 1.609
288.15 K, m1 = 1.258 | 1550.2 | – | 1.705
288.15 K, m1 = 1.551 | 1571.7 | – | 1.875
288.15 K, m1 = 1.906 | 1598.9 | – | 2.178
288.15 K, m1 = 2.145 | 1615 | – | 2.403
288.15 K, m1 = 2.29 | 1625 | – | 2.545
288.15 K, m1 = 2.292 | 1623.1 | – | –
288.15 K, m1 = 2.344 | 1629.2 | – | 2.57
288.15 K, m1 = 2.91 | 1666 | – | 3.231
288.15 K, m1 = 3.472 | 1699.5 | – | 4.124
288.15 K, m1 = 4.075 | 1729.1 | – | 5.31
288.15 K, m1 = 4.817 | 1761.2 | – | 7.338
288.15 K, m1 = 5.224 | 1769.8 | – | 8.634
288.15 K, m1 = 5.797 | 1786.4 | – | –
288.15 K, m1 = 6.34 | 1797.7 | – | –
293.15 K, m1 = 0.2263 | – | 73.17 | –
293.15 K, m1 = 0.334 | – | 73.3 | –
293.15 K, m1 = 0.6198 | – | 74.02 | –
293.15 K, m1 = 0.8228 | – | 74.83 | –
293.15 K, m1 = 1.259 | – | 75.92 | –
293.15 K, m1 = 1.549 | – | 76.32 | –
293.15 K, m1 = 1.818 | – | 76.87 | –
293.15 K, m1 = 2.222 | – | 78.11 | –
293.15 K, m1 = 2.526 | – | 79 | –
293.15 K, m1 = 2.721 | – | 79.59 | –
293.15 K, m1 = 3.426 | – | 81.48 | –
293.15 K, m1 = 4.011 | – | 83.01 | –
293.15 K, m1 = 4.231 | – | 83.39 | –

— the NIST ThermoML archive (doi:10.1021/je0302001)
